This note sets out measurements from patent publication US10294228B2, “Breathing control modulating compounds, and methods of making and using same” (NEURAD LTD., priority 2015, dated 2019).

The nature of series [1]: Polymorphic transformation by exposure to humidity. It is filed as physicochemical. The following applies: >80% humidity, three days, ambient temperature; confirmed by XRPD and DSC. The procedure:
Approximately 10 mg of the solid as its initially obtained polymorphic form were placed in a 4 mL open vial. In a 20 mL vial, about 5 mL of distilled water were added and heated to about 50° C., then the vial was capped, and the contents were cooled for about 30 minutes at ambient temperature. Then the 20 mL vial was uncapped, the smaller vial was placed inside the bigger vial, the bigger vial was recapped, and the sample in the smaller vial was exposed and aged in an environment of approximately 80-95% relative humidity at ambient temperature for 3 days. Polymorphic transformation was confirmed by XRPD and DSC vs. that for the initially obtained polymorphic form.

The next series relates to anesthetized rats. The series can be described thus: Anesthetized rat spirometry screening assay (ventilatory activity, minute volume). The class given is in vivo. The following applies: increase in minute volume (VE); for change in vivo at 0.3 mg/kg: 0.3 mg/kg IV bolus, read-out: VE % Inc @ 0.3 mg/kg IV; for change in vivo at 3 mg/kg: 3.0 mg/kg IV bolus, read-out: VE % Inc @ 3.0 mg/kg IV. The method in brief:
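Urethane-anesthetized (1.5 g/kg i.v.) rats with tracheal cannula to pneumotachometer; minute volume derived from respiratory rate × tidal volume. Compounds given as i.v. bolus at 0.1 and/or 0.3 and/or 3 mg/kg, monitored at least 6 min; data as 30 s averages.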

SMILES strings stand for the structures.

For `CCCNc1nc(NC)nc2c(NCC(C)(C)O)nc(NC)nc12` [Compound 31d-1, 1-(2,6-Bis-methylamino-8-propylamino-pyrimido[5,4-d]pyrimidin-4-ylamino)-2-methyl-propan-2-ol], the “polymorphic transformation on exposure to humidity” value in series [1] was “converted to form Mal-B (31d-2)”.
On the same count and under the same terms, the result for `CCCNc1nc(NC)nc2c(NCC(C)(C)O)nc(NC)nc12` [Compound 31h-1, 1-(2,6-Bis-methylamino-8-propylamino-pyrimido[5,4-d]pyrimidin-4-ylamino)-2-methyl-propan-2-ol] reads “converted to form Tos-B (31h-2)”.
For the compound `C=CCNc1nc(NC)c2nc(NC[C@H](C)O)nc(NC)c2n1` [Compound 143, (S)-1-(6-Allylamino-4,8-bis-methylamino-pyrimido[5,4-d]pyrimidin-2-ylamino)-propan-2-ol], in the series on anesthetized rats, the change in vivo at 0.3 mg/kg is 81% and the change in vivo at 3 mg/kg worked out at 150%.
Turning to `CNc1nc(NC[C@@H](C)O)nc2c(NC)nc(NCC3CC3)nc12` [Compound 144, (R)-1-[6-(Cyclopropylmethyl-amino)-4,8-bis-methylamino-pyrimido[5,4-d]pyrimidin-2-ylamino]-propan-2-ol], in the series on anesthetized rats, the change in vivo at 0.3 mg/kg came out at 14% and the change in vivo at 3 mg/kg stood at 98%.
For `C=CCNc1nc(NC)c2nc(NC[C@@H](C)O)nc(NC)c2n1` [Compound 145, (R)-1-(6-Allylamino-4,8-bis-methylamino-pyrimido[5,4-d]pyrimidin-2-ylamino)-propan-2-ol], in the series on anesthetized rats, the change in vivo at 0.3 mg/kg came to 47% and the change in vivo at 3 mg/kg amounted to 156%.
The matching figures for `CCC(O)CNc1nc(NC)c2nc(NCC3CC3)nc(NC)c2n1` (stereo not drawn) [Compound 146, 1-[6-(Cyclopropylmethyl-amino)-4,8-bis-methylamino-pyrimido[5,4-d]pyrimidin-2-ylamino]-butan-2-ol]: 9% and 121%.
For `CCNc1nc(NC)c2nc(NCC(O)CC)nc(NC)c2n1` (stereo not drawn) [Compound 147, 1-(6-Ethylamino-4,8-bis-methylamino-pyrimido[5,4-d]pyrimidin-2-ylamino)-butan-2-ol], in the series on anesthetized rats, the change in vivo at 0.3 mg/kg worked out at 31% and the change in vivo at 3 mg/kg worked out at 147%.
The matching figures for `CNc1nc(NC)c2nc(NCC(C)(C)O)nc(NC)c2n1` [Compound 149, 2-Methyl-1-(4,6,8-tris-methylamino-pyrimido[5,4-d]pyrimidin-2-ylamino)-propan-2-ol]: 16% and 49%.
The matching figures for `CNc1nc(NC[C@@H](C)O)nc2c(NC)nc(N)nc12` [Compound 151, (R)-1-(6-Amino-4,8-bis-methylamino-pyrimido[5,4-d]-pyrimidin-2-ylamino)-propan-2-ol]: 0% and 95%.
The matching figures for `CNc1nc(NC[C@H](C)O)nc2c(NC)nc(N)nc12` [Compound 152, (S)-1-(6-Amino-4,8-bis-methylamino-pyrimido[5,4-d]-pyrimidin-2-ylamino)-propan-2-ol]: 7% and 89%.
For `C=CCNc1nc(NC)c2nc(NCCO)nc(NC)c2n1` [Compound 154, 2-(6-Allylamino-4,8-bis-methylamino-pyrimido[5,4-d]pyrimidin-2-ylamino)-ethanol], in the series on anesthetized rats, the change in vivo at 0.3 mg/kg was found to be 40% and the change in vivo at 3 mg/kg worked out at 103%.
The matching figures for `C=CCNc1nc(NC)c2nc(N(CCC)C[C@H](C)O)nc(NC)c2n1` [Compound 155, (S)-1-[(6-Allylamino-4,8-bis-methylamino-pyrimido[5,4-d]-pyrimidin-2-yl)-propyl-amino]-propan-2-ol]: 14% and 79%.
As for `C=CCNc1nc(NC)c2nc(N(C)C[C@H](C)O)nc(NC)c2n1` [Compound 156, (S)-1-[(6-Allylamino-4,8-bis-methylamino-pyrimido[5,4-d]pyrimidin-2-yl)-methyl-amino]-propan-2-ol], in the series on anesthetized rats, the change in vivo at 0.3 mg/kg amounted to 16% and the change in vivo at 3 mg/kg stood at 97%.
The matching figures for `C=C(C)CNc1nc(NC)c2nc(NC[C@@H](C)O)nc(NC)c2n1` [Compound 158, (R)-1-[6-(2-Methyl-allylamino)-4,8-bis-methylamino-pyrimido[5,4-d]-pyrimidin-2-ylamino]-propan-2-ol]: 68% and 120%.
Consider `C=C(C)CNc1nc(NC)c2nc(NC[C@H](C)O)nc(NC)c2n1` [Compound 159, (S)-1-[6-(2-Methyl-allylamino)-4,8-bis-methylamino-pyrimido[5,4-d]-pyrimidin-2-ylamino]-propan-2-ol], for which, in the series with anesthetized rats, the change in vivo at 0.3 mg/kg was determined as 61% and the change in vivo at 3 mg/kg was found to be 160%.
Taken in the same sequence, the figures for `CCCNc1nc(NCC)c2nc(NCCO)nc(NCC)c2n1` [Compound 162, 2-(4,8-Bis-ethylamino-6-propylamino-pyrimido[5,4-d]pyrimidin-2-ylamino)-ethanol] were 187% and 216%.
The matching figures for `CCCNc1nc(NCC)c2nc(NCC(C)(C)O)nc(NCC)c2n1` [Compound 163, 1-(4,8-Bis-ethylamino-6-propylamino-pyrimido[5,4-d]pyrimidin-2-ylamino)-2-methyl-propan-2-ol]: 88% and 144%.
The matching figures for `CCNc1nc(NCC)c2nc(NC[C@H](C)O)nc(NCC)c2n1` [Compound 165, (S)-1-(4,6,8-Tris-ethylamino-pyrimido[5,4-d]pyrimidin-2-ylamino)-propan-2-ol]: 66% and 101%.
For the compound `CCCNc1nc(NCC)c2nc(NC[C@H](C)O)nc(NCC)c2n1` [Compound 166, (S)-1-(4,8-Bis-ethylamino-6-propylamino-pyrimido[5,4-d]-pyrimidin-2-ylamino)-propan-2-ol], in the series on anesthetized rats, the change in vivo at 0.3 mg/kg was 88% and the change in vivo at 3 mg/kg came out at 91%.
The matching figures for `CCCNc1nc(NCC)c2nc(NC[C@@H](C)O)nc(NCC)c2n1` [Compound 169, (R)-1-(4,8-Bis-ethylamino-6-propylamino-pyrimido[5,4-d]-pyrimidin-2-ylamino)-propan-2-ol]: 113% and 142%.
The matching figures for `CCNc1nc(NC[C@@H](C)O)nc2c(NCC)nc(N)nc12` [Compound 171, (R)-1-(6-Amino-4,8-bis-ethylamino-pyrimido[5,4-d]-pyrimidin-2-ylamino)-propan-2-ol]: 17% and 175%.
Taken in the same sequence, the figures for `CCNc1nc(NC[C@H](C)O)nc2c(NCC)nc(N)nc12` [Compound 172, (S)-1-(6-Amino-4,8-bis-ethylamino-pyrimido[5,4-d]-pyrimidin-2-ylamino)-propan-2-ol] were 5% and 155%.
Take `C=C(C)CNc1nc(NCC)c2nc(NC[C@@H](C)O)nc(NCC)c2n1` [Compound 174, (R)-1-[4,8-Bis-ethylamino-6-(2-methyl-allylamino)-pyrimido[5,4-d]-pyrimidin-2-ylamino]-propan-2-ol]: in the series on anesthetized rats, the change in vivo at 0.3 mg/kg worked out at 72% and the change in vivo at 3 mg/kg was determined as 114%.
As to `C=C(C)CNc1nc(NCC)c2nc(NC[C@H](C)O)nc(NCC)c2n1` [Compound 175, (S)-1-[4,8-Bis-ethylamino-6-(2-methyl-allylamino)-pyrimido[5,4-d]-pyrimidin-2-ylamino]-propan-2-ol], in the series on anesthetized rats, the change in vivo at 0.3 mg/kg is 75% and the change in vivo at 3 mg/kg came to 134%.
The matching figures for `CCNc1nc(NCC)c2nc(NC[C@@H](C)O)nc(NCC)c2n1` [Compound 186, (R)-1-(4,6,8-Tris-ethylamino-pyrimido[5,4-d]pyrimidin-2-ylamino)-propan-2-ol]: 37% and 90%.
